Laboratory results published in patent publication US6759521B2, “Polarization switching to control crystal form” (priority 2000, dated 2004).

Details: glycine in water, room temperature (21 C)
Method: Supersaturated solutions of glycine in water, with concentrations ranging from 3.7 M to 3.9 M, were prepared by combining appropriate amounts of solid glycine with 2 g of water in 1.3-cm diameter Pyrex test tubes with screw-on caps. Great care was taken to exclude dust from samples. Supersaturation was achieved by heating the samples in an ultrasonic bath at 50 C, and holding them at that temperature until the glycine was completely dissolved.

## NCC(=O)O [glycine]
  csat, concentration of a saturated solution: 2.69 M
